Data as given in EP0341154A2, “Analogues of L-fucose, process for their preparation, their application for the preparation of glycals, anthracycline derivatives of the glycals and the use of the anthracyclines as medicaments” (priority 1988, dated 1989).

Tests used:
[1] = tested on: A549; assay: MTT reduction proliferation test, 72 h incubation; format: cell-based; conditions: A 549 cells
Method: (§1) Des cellules tumorales L1210, A549 et HT29, à une concentration de 5.10³/ml dans un milieu RPMI, sont incubées dans des plaques de microtitration contenant 96 puits, pendant 72 heures (37°C, 5 % CO₂, 95 % d'humidité relative) avec différentes concentrations de chacun des glycosides (anthracyclines) conformes à l'invention.
(§2) Les témoins consistent en cellules tumorales exposées à un milieu de culture. Quatre puits sont préparés pour chaque concentration en glycoside et pour le témoin. Après 65 heures, 50 µl de MTT (2,5 mg/ml dans du PBS) sont ajoutés.
(§3) Le MTT sera réduit, en présence de cellules vivantes en un colorant formazan rouge insoluble. Après 7 à 24 heures d'incubation supplémentaire, le surnageant est enlevé. Le colorant formazan est solubilisé par l'addition de 100 µl de DMSO dans chaque puits, suivie d'une agitation douce.
(§4) L'extinction est mesurée pour chaque puits, à 492 nm (photomètre Multiscan 340 CC Fa. Flow).
(§5) Les résultats sont exprimés comme le rapport de l'extinction après incubation avec les glycosides sur l'extinction obtenue avec les témoins. Le coefficient de variation est inférieur à 15 %.

[2] = tested on: HT29; assay: MTT reduction proliferation test, 72 h incubation; format: cell-based; conditions: HT 29 cells
Method: as §1, §2, §3, §4, §5

[3] = tested on: L1210; assay: MTT reduction proliferation test, 72 h incubation; format: cell-based; conditions: L1210 cells
Method: as §1, §2, §3, §4, §5

[4] = tested on: L1210; assay: In vivo antitumour effect on L1210 ascites leukemia in mice; design: species or system souris BDF1; conditions: for L1210 T/C %: 3 x 1.p./ 1.p. Q3D, BDF1 mice
Method: Un liquide d'ascite est prélevé dans les conditions aseptiques chez des souris DBA2 (femelle, 18 - 20 g) le septième jours après l'implantation.
L'ascite est lavée trois fois avec du PBS, comptée et finalement diluée dans du PBS, de manière à obtenir 10⁶ cellules/0,2 ml.
10⁶ cellules dans 0,2 ml de P BS sont injectées dans le peritoine de souris DBA2 pour la propagation de la lignée cellulaire.
10⁶ cellules dans 0,2 ml de PBS sont injectés intrapériotonéalement à des souris BDF1 (femelle 18 - 20 g), 6 animaux/group sont utilisés pour chaque concentration de substance et pour le contrôle.
• a) les animaux sont pesés le premier jour et le cinquième jour après l'administration du médicament. Une perte de poids supérieure à 20 % le cinquième jour est utilisée comme indicateur d'effet toxique du produit. • b) à la fin de l'expérience, (mort de tous les animaux ou soixantième jour de l'essai), le temps moyen de survie des animaux, dans tous les groupes ayant plus de 65 % de survivants au cinquième jour, est évalué selon des procédures standard.
Les animaux survivants au soixantième jour sont considérés comme des survivants de longue durée (LTS : Long Time Survivors) et sont répertoriés séparément.
A partir du temps de survie moyen des groupes traités (MSTT) et des groupes contrôle (MSTC), l'effet antitumoral (T/C) est évalué en fonction de la formule suivante : [formula]
Les valeurs T/C de plus de 125 % sont considé-rées comme des indicateurs d'un effet antitumoral significatif.

[5] = Acute toxicity in mice (Litchfield Wilcoxon); format: in vivo, souris NMRI; conditions: 3 x i.p., NMRI mice, deaths counted after two weeks
Source text: La substance à tester est injectée à des souris NMRI selon le protocole tel que précisé dans le Tableau IV, ci-après.
Après deux semaines, le nombre total d'animaux décédés dans chaque groupe est calculé et les DL₅₀ sont évaluées en utilisant la méthode de Litchfield Wilcoxon.

SMILES | CI₅₀ TEST AU MTT A 549 [1] | CI₅₀ TEST AU MTT HT 29 [2] | CI₅₀ TEST AU MTT L1210 [3] | L1210 T/C % ([4]; 10.00 mg/kg/Inj.) | L1210 T/C % ([4]; 13.30 mg/kg/Inj.) | L1210 T/C % ([4]; 17.70 mg/kg/Inj.) | Morts toxiques ([4]; 17.70 mg/kg/Inj., 6 animals/group) | DL₅₀ [5]
CC[C@@H]1O[C@@H](O[C@H]2C[C@](O)(CC)[C@H](O[C@@H]3C[C@H](OC(C)=O)[C@H](OC(C)=O)[C@H](CC)O3)c3c(O)c4c(c(O)c32)C(=O)c2c(O)cccc2C4=O)C[C@H](OC(C)=O)[C@@H]1OC(C)=O [22 b, Di-O-(di-O-acétyl-3′,4′tridésoxy-2′,6′,7′-α-L-thréoheptopyrannosyl)-7,10 β-Rhodomycinone] | > 1 µg/mL | > 1 µg/mL | > 1 µg/mL |  |  |  |  | 
CCCCC[C@@H]1O[C@@H](O[C@H]2C[C@](O)(CC)[C@H](O)c3c(O)c4c(c(O)c32)C(=O)c2c(O)cccc2C4=O)C[C@H](OC(C)=O)[C@@H]1OC(C)=O [21 c, O-(di-O-acétyl-3′,4′hexadésoxy-2′,6′,7′,8′,9′,10′-α-L-thréodécapyrannosyl)-7 β-Rhodomycinone] | > 1 µg/mL | > 1 µg/mL | > 1 µg/mL |  |  |  |  | 
CC[C@@H]1O[C@@H](O[C@H]2C[C@](O)(CC)[C@H](O)c3c(O)c4c(c(O)c32)C(=O)c2c(O)cccc2C4=O)C[C@H](OC(C)=O)[C@@H]1OC(C)=O [21 b, O-(di-O-acétyl-3′-4′ tridésoxy-2′,6′,7′-α-L-thréo-heptopyrannosyl)-7 β-Rhodomycinone] | 0,46 µg/ml | > 1 µg/mL | 0,51 µg/ml |  |  |  |  | 
CCC1(O)CC(OC2CC(OC(C)=O)C(OC(C)=O)C(C)O2)c2c(O)c3c(c(O)c2C1O)C(=O)c1cccc(O)c1C3=O [21 a, O-(di-O-acétyl-3′,4′ didésoxy-2′,6′-α-L-thréo-hexopyrannosyl)-7 β-Rhodomycinone] | 0,086 µg/ml | 0,038 µg/ml | 0,03 µg/ml | 134% | 152% | 146% | 1/6 | > 21.3
CCCCC1OC(OC2CC(O)(C(C)=O)Cc3c(O)c4c(c(O)c32)C(=O)c2c(OC)cccc2C4=O)CC(OC(C)=O)C1OC(C)=O (centres unmarked) [20 c, acétoxy-3′ O-acétyl-4′ désamino-3′ propyl-6′ daunorubicine] | > 1 µg/mL | > 1 µg/mL | > 1 µg/mL |  |  |  |  | 
CCCCCC1OC(OC2CC(O)(CC)C(OC3CC(OC(C)=O)C(OC(C)=O)C(CCCCC)O3)c3c(O)c4c(c(O)c32)C(=O)c2c(O)cccc2C4=O)CC(OC(C)=O)C1OC(C)=O [22 c, di-O-(di-O-acétyl-3′,4′ hexadésoxy-2′,6′,7′,8′,9′, 10′-α-L-thréodécapyrannosyl)-7,10 β-Rhodomycinone] | > 1 µg/mL | > 1 µg/mL | > 1 µg/mL |  |  |  |  | 
